Measured values published in PMC4718940, “Preclinical studies of 5-fluoro-2′-deoxycytidine and tetrahydrouridine in pediatric brain tumors” (Journal of Neuro-Oncology, 2015).
Read-outs that look alike come from different tables or passages of the source.

Assays:
[1] = test system: Mouse G3 MB Myc1 neurospheres; test: 72 h dose response, CellTiter-Glo, mouse G3 MB neurospheres; assay type: cell-based; settings: Mus musculus, Fig. 2a, read-out: EC50
Protocol: (§1) In the Discovery Phase, the initial studies included the screen of a library of 9 compounds against epigenetic regulators at a single concentration and a dose-response on G3 MB, EP, and CPC tumor cells, as well as HEPG2 and BJ (Fig. 1). The library and dose response studies are described in the Supplementary Material.
(§2) Briefly, cells (see Supplementary Table S2 for cell identity) were plated in 384-well plates (Corning) in 30 µL of supplemented neurobasal medium by using an automated plate filler (Wellmate, Matrix). After 24 hr, 28 nL of compound was transferred via pin tool, resulting in a final drug concentration of approximately 4 nM to 10 µM. After 72 hr of treatment, CellTiter-Glo reagent (Promega) was added, and the luminescence signal was measured using an automated Envision plate reader (Perkin-Elmer). Luminescence data were normalized by log10-transformation prior to calculating the percentage of inhibition using the following equation: 100 × (negative control mean − compound value)/(negative control mean − positive control mean). Our negative control represents cells treated with 0.1% DMSO with 0% inhibition. Cells treated with 35 µM cycloheximide (G3 MB tumor spheres) or 10 µM panobinostat (EP and CPC cells) were used as positive controls with 100% inhibition. The response of cells to the compounds were normalized to that of the positive controls present in each plate screened, shown in the Y axis of the dose-response curve. […] Unless otherwise reported, the y-axis for each dose response curve in the figures was independently normalized to the range from 0 to 1 and therefore reported as ‘relative growth inhibition’. High through put assay data were analyzed by using our in-house Robust Interpretation of Screening Experiments (RISE) application that was written in Pipeline Pilot (Accelrys, v. 8.5) and R (R Development Core Team).

[2] = test system: mouse EP neurospheres; test: 72 h dose response, CellTiter-Glo, mouse EP neurospheres; assay type: cell-based; settings: Mus musculus, Fig. 2a, read-out: EC50
Protocol: as §1, §2

[3] = test system: mouse CPC neurospheres (CPC300); test: 72 h dose response, CellTiter-Glo, mouse CPC neurospheres; assay type: cell-based; settings: Mus musculus, Fig. 2a, read-out: EC50
Protocol: as §1, §2

[4] = test system: Patient-derived xenograft of a human G3 medulloblastoma, TB-12-5950; test: 72 h dose response, CellTiter-Glo, human G3 MB PDX cells; assay type: cell-based; settings: Fig. 2b
[5] = test system: Ink4a/Arf−/− neural stem cells; test: FdCyd growth inhibition, neural stem cells; assay type: cell-based, mouse; settings: Fig. 2c
[6] = test system: BJ cells; test: FdCyd growth inhibition, BJ control cells; assay type: cell-based, human; settings: Fig. 2c
[7] = test system: HEPG2 cells; test: FdCyd growth inhibition, HEPG2 control cells; assay type: cell-based, human; settings: Fig. 2c
[8] = test system: EP cells; test: FdCyd wash-out experiment, EP; assay type: cell-based; settings: Mus musculus
Protocol: Myc1 and Myc2 G3 MB, EP, and CPC tumor cells (Supplementary Table 1) were plated in 96-well plates. After 24 h, 128 nL of a dilution series of a selected drug was transferred creating a final drug concentration of 0.5–9.3 µM. To assess the optimal exposure time, the drug was removed and replaced with fresh medium after 1, 3, 6, 10, 24, or 72 h (“wash-out”).
In both experiments, 72 h after drug addition to cells, we added 100 µL of CellTiter-Glo reagent (Promega), and we read the luminescence signal. Data analysis used GraphPad Prism software (Version 5.04).

[9] = Plasma pharmacokinetics in non-tumor-bearing CD1 nude mice; assay type: in vivo, mouse; settings: for AUC(0-inf): read-out: plasma exposure (AUC0-Inf), mean ± SD
Protocol: Once a drug passed the Discovery Phase it was moved to the Pre-Clinical Phase, which included PK and PD studies (Fig. 1). The details of the plasma PK and cerebral microdialysis studies are provided in the Supplemental Materials.
An initial, detailed plasma PK study was performed in non–tumor-bearing CD1 nude mice to define drug disposition in our mouse model of interest, determine the plasma systemic exposure, and when possible, to compare the systemic exposure in the mouse with that achievable in patients at clinically relevant dosages. Dosing solutions were prepared in 5% dextrose for injection at concentrations providing a standard final dosing volume of 10 mL/kg (i.e., 2.5 mg/mL FdCyd and 10 mg/mL THU). Plasma samples were separated by centrifugation and stored at −80°C until analysis using a sensitive and specific liquid chromatography–tandem mass spectrometry (LC-MS/MS) method to determine FdCyd concentrations. Plasma samples were collected by using a sparse sampling design in which 2 - 3 blood samples per mouse were collected in tubes containing zebularine (final concentration in blood sample, 1 mg/mL) to inhibit cytidine deaminase activity in vitro.
An appropriate pharmacokinetic model was fit to the observed concentration-time data obtained from the initial PK studies (IP and IV administration) by using non-linear mixed-effect modeling (NONMEM 7.2, ICON Development Solutions). Using D-optimality implemented in ADAPT 5, we use the data from the plasma pharmacokinetic study to define a pharmacokinetic limited sampling model (LSM), which will be used in subsequent microdialysis studies.

[10] = In vitro plasma protein binding; assay type: in vitro ADME; settings: data not shown, read-out: fu,p (unbound fraction, plasma protein)
[11] = test system: mouse G3 MB tumorspheres (Myc1, Myc2); test: In vitro apoptosis, Annexin V and DAPI FACS; assay type: cell-based; settings: 4 nM FdCyd alone, 24, 48, 72 h, compared to DMSO-treated cells
From the text: (§3) See Supplementary Material for more details.
(§4) Tumors were fixed in 10% formalin.

[12] = test system: Trp53−/−, Cdkn2c−/− neurospheres; test: In vitro cell cycle and apoptosis, control neurospheres; assay type: cell-based, mouse; settings: 4 nM FdCyd
From the text: as §3, §4

[13] = test system: EP tumors; test: In vivo apoptosis, Caspase 3 immunohistochemistry, EP
Protocol: (§5) To assess apoptosis and proliferation in vivo, G3 MB, EP, and CPC tumors were isolated from mice 3, 8, or 24 h after treatment with compound or vehicle, fixed in 10 % formalin, and sections were immunostained with antibodies to Caspase 3 (apoptosis) or Ki67 (proliferation).
(§6) In vivo apoptosis and proliferation were performed on G3 MB, EP, and CPC tumors isolated from mice 3, 8, or 24 hr after treatment with compound or vehicle (saline). Tumors were fixed in 10% formalin. Sections (4-micron) were immunostained with antibodies to Caspase 3 (CP229C, BioCare Medical, Concorde, CA) to detect apoptotic cells, or Ki67 (ThermoShandon, RM9106) to detect proliferation. The number of positive cells for each stain was normalized to the total number of cells.
(§7) Mice bearing G3 MB, EP, or CPC tumors were harvested 3, 8, or 24 hr after IP injection of vehicle (V) or FdCyd + THU (FdCyd). Fixed brains were sliced and stained for caspase 3. The percentage of positive cells was calculated based on total number of cells. SD= standard deviation.

[14] = test system: CPC tumors; test: In vivo apoptosis, Caspase 3 immunohistochemistry, CPC
Protocol: as §5, §6, §7

## Nc1nc(=O)n([C@H]2C[C@H](O)[C@@H](CO)O2)cc1F [FdCyd, 5-fluoro-2′-deoxycytidine]
[1]
  EC50: 1.7 nM
[2]
  EC50: 4 nM
[3]
  EC50: 5.6 nM
[4]
  EC50: 1 nM
[5]
  sensitivity to FdCyd (growth inhibition): showed sensitivity
[6]
  sensitivity to FdCyd (growth inhibition): not
[7]
  sensitivity to FdCyd (growth inhibition): not
[8]; 1 h exposure then wash-out, read at 72 h, read-out: EC50 after 1 h FdCyd exposure
  EC50: 22 ± 8 nM
[8]; 72 h, wash-out, 1st of 4 values listed for the remaining time points (3, 6, 10, 24, 72 h), read-out: EC50, longer exposure
  EC50: 17 nM
[8]; 72 h, wash-out, 2nd of 4 values listed for the remaining time points (3, 6, 10, 24, 72 h), read-out: EC50, longer exposure
  EC50: 13 nM
[8]; 72 h, wash-out, 3rd of 4 values listed for the remaining time points (3, 6, 10, 24, 72 h), read-out: EC50, longer exposure
  EC50: 3 nM
[8]; 72 h, wash-out, 4th of 4 values listed for the remaining time points (3, 6, 10, 24, 72 h), read-out: EC50, longer exposure
  EC50: 0.7 nM
[9]; CD1 nude mice 25 mg/kg vs humans at RP2D 100 mg/m^2, human PK ref 26
  FdCyd exposure in mice relative to humans: approximately 4 times higher
[9]; CD1 nude, mouse, plasma, FdCyd 25 mg/kg with THU 100 mg/kg, IP
  AUC(0-inf): 112 ± 6.55 µM·h
[9]; CD1 nude, mouse, plasma, FdCyd 25 mg/kg with THU 100 mg/kg, IV
  AUC(0-inf): 114 ± 4.77 µM·h
[9]; CD1 nude, mouse, plasma, FdCyd 25 mg/kg with THU 100 mg/kg, NONMEM, IV and IP data, read-out: systemic clearance, population mean (standard error of estimation) (converted)
  clearance: 15 mL/min/kg
[9]; CD1 nude, mouse, plasma, FdCyd 25 mg/kg with THU 100 mg/kg, NONMEM, IV and IP data, read-out: volume of distribution, population mean (standard error of estimation)
  Vd: 0.62 L/kg
[9]; IP 6 mg/kg FdCyd with 100 mg/kg THU, confirmatory PK study
  murine plasma exposure compared with RP2D in humans: comparable
[10]
  fraction unbound: ~1
[11]
  number of apoptotic cells (Annexin V): increased
[12]
  effect on cell cycle and apoptosis of control neurospheres: without affecting control neurospheres
[13]; 3 hr after IP injection of FdCyd + THU, vehicle 0.9975
  Caspase-3 % of positive cells: 1.416%
[13]; 8 hr after IP injection of FdCyd + THU, vehicle 1.110
  Caspase-3 % of positive cells: 1.210%
[13]; 24 hr after IP injection of FdCyd + THU, vehicle 1.427
  Caspase-3 % of positive cells: 1.030%
[14]; 3 hr after IP injection of FdCyd + THU, vehicle 3.963
  Caspase-3 % of positive cells: 10.63%
[14]; 8 hr after IP injection of FdCyd + THU, vehicle 4.917
  Caspase-3 % of positive cells: 2.297%
[14]; 24 hr after IP injection of FdCyd + THU, vehicle 3.493
  Caspase-3 % of positive cells: 6.797%
